Experiments:
[1] = target: CYP3A4 (Homo sapiens (Human), UniProt P08684); test: Inhibition of liver cytochrome P450 enzymes, pooled human liver microsomes
[2] = target: CYP2C9 (Homo sapiens (Human), UniProt P11712); test: biochemical
[3] = target: CYP2C19 (Homo sapiens (Human), UniProt P33261); test: biochemical
[4] = target: CYP17 (Rattus norvegicus (Rat), UniProt P11715); test: CYP17 metalloenzyme activity, rat testicular microsomes; format: biochemical; details: pooled rat testicular microsomes
CYP17, sequence (P11715 whole entry): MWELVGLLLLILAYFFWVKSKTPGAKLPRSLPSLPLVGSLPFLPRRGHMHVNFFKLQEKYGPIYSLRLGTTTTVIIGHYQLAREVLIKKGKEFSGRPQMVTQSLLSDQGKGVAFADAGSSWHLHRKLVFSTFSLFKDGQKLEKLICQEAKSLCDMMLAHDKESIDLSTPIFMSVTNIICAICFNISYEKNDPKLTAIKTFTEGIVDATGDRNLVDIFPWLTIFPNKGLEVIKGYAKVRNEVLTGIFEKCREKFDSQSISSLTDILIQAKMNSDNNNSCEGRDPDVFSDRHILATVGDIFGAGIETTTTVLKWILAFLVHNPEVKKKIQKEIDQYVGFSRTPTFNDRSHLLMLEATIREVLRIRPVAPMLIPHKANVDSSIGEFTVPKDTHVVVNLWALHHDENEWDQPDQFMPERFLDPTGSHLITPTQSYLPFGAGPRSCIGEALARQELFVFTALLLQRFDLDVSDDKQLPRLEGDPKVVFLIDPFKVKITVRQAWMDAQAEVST
Description: CYP17 activity was assayed according to the following procedure.

CYP2C19, sequence (P33261 whole entry): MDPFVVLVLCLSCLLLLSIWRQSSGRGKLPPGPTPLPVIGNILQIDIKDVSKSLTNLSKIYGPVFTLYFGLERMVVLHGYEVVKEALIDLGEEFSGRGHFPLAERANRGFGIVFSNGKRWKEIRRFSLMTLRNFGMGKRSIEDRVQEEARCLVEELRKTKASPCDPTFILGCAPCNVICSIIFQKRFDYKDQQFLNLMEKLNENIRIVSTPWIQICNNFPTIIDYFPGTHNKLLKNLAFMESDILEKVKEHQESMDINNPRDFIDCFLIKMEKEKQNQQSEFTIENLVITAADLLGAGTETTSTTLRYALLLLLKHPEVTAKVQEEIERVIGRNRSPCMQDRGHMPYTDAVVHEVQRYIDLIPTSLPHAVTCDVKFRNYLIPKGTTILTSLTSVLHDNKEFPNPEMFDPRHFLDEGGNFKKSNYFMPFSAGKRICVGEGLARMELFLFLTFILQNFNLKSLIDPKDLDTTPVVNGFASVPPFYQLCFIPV
CYP2C9, sequence (P11712 whole entry): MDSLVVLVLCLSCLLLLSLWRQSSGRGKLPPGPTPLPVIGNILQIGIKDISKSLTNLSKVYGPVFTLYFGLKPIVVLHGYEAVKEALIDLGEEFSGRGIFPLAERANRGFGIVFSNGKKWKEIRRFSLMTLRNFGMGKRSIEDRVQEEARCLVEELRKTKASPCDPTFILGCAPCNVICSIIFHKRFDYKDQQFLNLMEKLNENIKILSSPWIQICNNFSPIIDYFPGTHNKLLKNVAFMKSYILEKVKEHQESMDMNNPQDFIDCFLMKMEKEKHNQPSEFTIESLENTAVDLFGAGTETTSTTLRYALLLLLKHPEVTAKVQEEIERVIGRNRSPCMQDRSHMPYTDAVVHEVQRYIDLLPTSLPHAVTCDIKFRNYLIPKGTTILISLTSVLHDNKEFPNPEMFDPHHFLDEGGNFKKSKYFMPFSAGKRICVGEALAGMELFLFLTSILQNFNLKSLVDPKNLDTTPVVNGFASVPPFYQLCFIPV
CYP3A4, sequence (P08684 whole entry): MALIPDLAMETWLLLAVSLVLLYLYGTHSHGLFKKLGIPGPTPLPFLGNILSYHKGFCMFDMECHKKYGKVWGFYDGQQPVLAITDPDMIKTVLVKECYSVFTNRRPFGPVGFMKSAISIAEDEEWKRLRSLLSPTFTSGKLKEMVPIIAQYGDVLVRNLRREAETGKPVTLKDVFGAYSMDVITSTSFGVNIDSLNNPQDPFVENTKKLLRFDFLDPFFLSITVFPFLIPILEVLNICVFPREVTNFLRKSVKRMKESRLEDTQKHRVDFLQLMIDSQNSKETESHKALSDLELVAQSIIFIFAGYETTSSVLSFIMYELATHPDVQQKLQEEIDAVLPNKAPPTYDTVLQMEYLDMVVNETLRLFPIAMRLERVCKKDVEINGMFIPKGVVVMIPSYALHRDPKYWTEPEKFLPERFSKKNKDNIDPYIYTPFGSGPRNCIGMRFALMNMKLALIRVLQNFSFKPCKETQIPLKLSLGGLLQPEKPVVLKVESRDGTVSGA

SMILES: COc1cc2ccc(C(O)(c3cncs3)C(C)C)cc2cc1OC (stereo not shown) [Example 2, 1-(6,7-dimethoxynaphthalen-2-yl)-2-methyl-1-(thiazol-5-yl)propan-1-ol]
- IC50 [1]: 770 nM
- IC50 [2]: 33000 nM
- IC50 [3]: 3000 nM
- IC50 [4]: 290 nM

— US9150527B2, “Metalloenzyme inhibitor compounds” (Innocrin Pharmaceuticals, Inc., priority 2011, dated 2015)
